# From the SangsterLogP compilation
row,SMILES,logP
1,CC(C)CCN1C(=O)CC2CCC(C)C3CCC4(C)OOC23C1O4 (stereo not given),4.16
2,CC1CCC2CC(=O)N(CCc3ccccc3)C3OC4(C)CCC1C23OO4 (stereo not given),3.94
3,C[C@@H]1CC[C@H]2[C@@H](C)C(=O)O[C@@H]3O[C@@]4(C)CC[C@@H]1[C@]32OO4 (relative stereo),2.9
4,CCCCCN1C(=O)CC2CCC(C)C3CCC4(C)OOC23C1O4 (stereo not given),4.24
5,CC1CCC2CC(=O)N(Cc3ccc(Cl)cc3)C3OC4(C)CCC1C23OO4 (stereo not given),4.32
6,C[C@@H]1CC[C@H]2[C@@H](C)CO[C@@H]3O[C@]4(C)CC[C@@H]1[C@]32OO4,3.16
7,CC1CCC2CC(=O)N(CCCc3ccccc3)C3OC4(C)CCC1C23OO4 (stereo not given),4.39
8,CCCN1C(=O)CC2CCC(C)C3CCC4(C)OOC23C1O4 (stereo not given),3.41
9,CC(C)CN1C(=O)CC2CCC(C)C3CCC4(C)OOC23C1O4 (stereo not given),3.66
10,CC1CCC2CC(=O)N(CC(=O)O)C3OC4(C)CCC1C23OO4 (stereo not given),1.75
